# Assay results: patent US8106168B2, “Metalloproteinase binding proteins” (Dyax Corp., priority 2005, dated 2012)
# Columns and labels:
# [1] = tested on: MDA-MB-231-GFP tumors; experiment: MDA-MB-231-GFP orthotopic breast tumor growth and metastasis
# Experimental: Human breast cancer cells MDA-MB-231 cells transfected with green fluorescent protein (MDA-MB-231-GFP) were inoculated into the mammary fat pad of female BALB/c nu/nu mice with Matrigel. Animals were monitored for tumor growth, and at week 4-5 post tumor cell inoculation, animals with tumors of 30-50 mm^3 were selected, randomized and divided into experimental groups. […] Tumor volume was measured weekly, starting at week 5. Additionally, tissue samples of lung, liver, and spleen were taken to assess metastasis.
# Animals were inoculated with MDA-MB-231-GFP cells as described above, then selected and randomized, and divided into experimental groups of 8 animals each. […] Tumor volume was measured weekly, starting at week 5.
# Tumor tissue samples were collected on day 35 post-treatment for immunohistochemical analysis. Paraffin-embedded tissue samples were sectioned, stained with CD31 (Santa Cruz Biotechnology Inc., Santa Cruz, Calif., USA), Ki-67 (DAKO, Carpinteria, Calif., USA), MAPK, FAK, phosphoMAPK or phosphoFAK antibodies, visualized with biotinylated secondary antibodies using a VECTASTAIN® ABC (Vector Laboratories Inc., Burlingame, Calif., USA), and lightly counterstained with haemotoxylin.
# [2] = tested on: B16F1 melanoma tumors; experiment: B16F1 melanoma subcutaneous tumor growth; type: in vivo, mouse; conditions: M0038-F01 10, 1 or 0.1 mg/kg Q2d IP; doxorubicin 5 mg/kg weekly IP
# Text: B16F1 melanoma cells were implanted into Female C57/BL6 (CR) mice (4-6 Weeks old) mice by subcutaneous injection.
# [3] = tested on: activation of pro-MMP-2 by MMP-14 in PMA-activated HT-1080 cells; experiment: Gelatin zymogram, pro-MMP-2 activation in HT-1080 cells; type: cell-based, human; conditions: gelatin zymography of conditioned media after 3 days; antibodies 10 μg/ml, GM6001 10 μM
# Experimental: The ability of anti-MMP-14 IgGs to inhibit the activation of pro-MMP-2 by MMP-14 was examined by gelatin zymogram experiments performed with PMA-activated HT-1080 cells. M0033-H07 and M0038-F01 were tested for their ability to inhibit MMP-14 in this assay. HT1080 cells (well-known to express MMP-14 and MMP-2) were seeded at 5×10^5 cells/well at Day 0. […] HT-1080 cells cultured in the presence of 20 ng/ml of PMA were used as a positive control.
# After 3 days of incubation, conditioned media were collected and gelatinolytic activities were analyzed by gelatin zymography as described previously (Maquoi et al, J Biol Chem 2000; 275:11368-78). When HT-1080 cells are activated with a phorbol ester, pro-MMP-2 is activated into MMP-2 (lane 1).
# [4] = tested on: PC3 prostate tumors; experiment: PC3 prostate tumor growth; type: in vivo, mouse; conditions: M0038-F01 10, 1 or 0.1 mg/kg Q2d IP; taxotere 10 mg/kg weekly IP; A2 10 mg/kg Q2d
# Text: PC3 prostate cancer cells were implanted into male nude mice by subcutaneous injection.
# [5] = tested on: MDA-MB-435 GFP tumors; experiment: MDA-MB-435 GFP orthotopic breast tumor growth; type: in vivo, mouse
# Text: Fragments of MDA-MB-435 GFP (MDA-MB-435 cells expressing green fluorescent protein) tumors were transplanted by surgical orthotopic implantation (SOI) into the right second mammary gland. Treatment was started on day 15 after SOI when the volume of primary tumors reached about 85 mm^3.
# Mice were sacrificed at day 61 after the start of the treatment and tumors (primary and metastases) were identified by fluorescent imaging. Additionally, primary tumors were excised and weighed. […] However, M0038-F01 was not effective in reducing lymph node or lung metastases in this experiment.
# [6] = immunostaining of tumor tissue, day 35
# [7] = immunostaining of tumor tissue, day 35 post-treatment, image analysis
compound,measurement,setting,value
"COc1cccc2c1C(=O)c1c(O)c3c(c(O)c1C2=O)C[C@@](O)(C(=O)CO)C[C@@H]3O[C@H]1C[C@H](N)[C@H](O)[C@H](C)O1 [DOX, doxorubicin]",metastases to spleen,"[1]; M0038-F01 10 mg/kg Q2d IP, DOX 5 mg/kg weekly IP","reduced in DOX and M0038-F01 treated animals, but the difference was not statistically significant"
same,lung and liver metastases,"[1]; M0038-F01 10 mg/kg Q2d IP, DOX 5 mg/kg weekly IP, compared to controls",statistically significant reduction
same,tumor growth (tumor volume),"[1]; M0038-F01 or A2 10 mg/kg Q2d IP, DOX 5 mg/kg weekly IP, five weeks",substantially inhibited
same,CD31 and KI67 levels compared to vehicle and A2 controls,[1]; [6],slightly reduced
same,phospho-FAK level,[1]; [6],4±1.2 A.U.
same,phospho-MAP kinase level,[1]; [6],5.8±1.9 A.U.
same,total FAK level,[1]; [6],6±1 A.U.
same,total MAP kinase level,[1]; [6],5.8±1.9 A.U.
same,CD31,[1]; [7],4.08 ± 1.28
same,Ki67,[1]; [7],5.2 ± 0.84
same,tumor growth,[2],effective in reducing tumor growth
"CNC(=O)[C@H](Cc1c[nH]c2ccccc12)NC(=O)[C@@H](CC(=O)NO)CC(C)C [GM6001, reference compound]",pro-MMP-2 activation by MMP-14,[3],completely abolished
same,pro-MMP-9 expression,[3],paradoxically stimulated
"CC(=O)O[C@@]12CO[C@@H]1C[C@H](O)[C@@]1(C)C(=O)[C@H](O)C3=C(C)[C@@H](OC(=O)[C@H](O)[C@@H](NC(=O)OC(C)(C)C)c4ccccc4)C[C@@](O)([C@@H](OC(=O)c4ccccc4)[C@H]21)C3(C)C [Taxotere, taxotere, reference compound]",tumor growth (tumor volume),[4],extremely effective
same,Tumor Mass (±SD),"[5]; 10 mg/kg (F01 and A2 Q2d IP; taxotere QW×3 i.v.), excised primary tumor, day 61, * p≦0.05 compared to Control",0.59 ± 0.59*
same,tumor volume,"[5]; M0038-F01 1 or 10 mg/kg Q2d IP, taxotere 10 mg/kg QW×3 i.v.",reduction of tumor volume
